Assay results as given in patent US20260232812A1, “BIFUNCTIONAL MOLECULES FOR TARGETED PROTEIN DEGRADATION” (Amphista Therapeutics Limited, priority 2022, published 2026).

What was measured:
BRD9 = molecular target: T1, BRD9 (Homo sapiens, UniProt Q9H8M2); experiment: Assay Protocol 2 - Degradation of BRD9 (IF) in MV4-11 cells; format: cell-based; set-up: host or cells: MV4-11; conditions: Assay Protocol 2: BRD9 immunofluorescence, 24 hours
T1 sequence (Q9H8M2 1-597): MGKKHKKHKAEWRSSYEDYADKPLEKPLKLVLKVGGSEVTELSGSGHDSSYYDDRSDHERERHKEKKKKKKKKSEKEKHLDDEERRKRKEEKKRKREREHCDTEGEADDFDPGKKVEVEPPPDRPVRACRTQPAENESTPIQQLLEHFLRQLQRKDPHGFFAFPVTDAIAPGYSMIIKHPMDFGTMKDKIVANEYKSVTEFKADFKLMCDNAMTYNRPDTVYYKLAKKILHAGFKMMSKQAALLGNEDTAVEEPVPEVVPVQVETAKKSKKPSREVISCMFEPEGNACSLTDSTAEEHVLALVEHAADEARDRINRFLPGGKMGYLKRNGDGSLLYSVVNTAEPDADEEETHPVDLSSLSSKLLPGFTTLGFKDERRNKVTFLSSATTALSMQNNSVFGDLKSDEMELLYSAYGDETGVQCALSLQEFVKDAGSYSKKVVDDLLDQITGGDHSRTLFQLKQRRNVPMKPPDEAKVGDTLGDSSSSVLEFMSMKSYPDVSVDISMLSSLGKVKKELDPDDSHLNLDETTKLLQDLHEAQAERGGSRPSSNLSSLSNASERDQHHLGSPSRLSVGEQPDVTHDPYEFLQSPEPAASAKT
Procedure: Assay Protocol 2—Degradation of BRD9 (IF)
A suspension of MV4-11 cells (ATCC CRL-9591) was prepared in phenol red-free assay media (IMDM Thermo Scientific 21056023+10% FBS ATCC 302025) and cells were seeded at 20,000 cells per well (45 μL) in sterile black poly-d-lysine coated 384 well plates (Greiner 781948). Compounds were prepared at 1000× final concentration in DMSO, diluted 1:100 in assay media, and 5 μL compound was added to each well of the cell plate. Cells were incubated for 24 hours at 37° C. with 5% CO2. All the following incubations for immunofluorescence staining were at room temperature. 15 μL of 16% PFA was added to each well (3.7% final concentration) and the cells were fixed for 15 min then washed twice with DPBS. Cells were permeabilised with 0.1% Triton X-100 for 10 min, Triton X-100 was removed, then blocked with 1% BSA in DPBS for 1 hour. Cells were stained with 25 μL anti-BRD9 E4Q3F antibody (CST 48306) diluted 1:25600 in 1% BSA in DPBS for 2-3 hours. Wells were washed twice with DPBS then incubated with 25 μL of 1% BSA containing a 1:1000 dilution of Anti-rabbit Alexa Fluor™ 647 secondary antibody (Thermo Scientific A^21244) and 1 μg/mL Hoechst nuclear counter stain (Abcam ab228551) for 1 hour. Wells were washed twice with DPBS prior to imaging on a Perkin Elmer Operetta CLS with 10× air lens. Images were processed using Harmony High-Content Imaging and Analysis Software (Perkin Elmer) and the mean contrast ratio of Alexa Fluor™ 647 in central nuclei was used to quantify BRD9 protein levels. Data was further analysed using Dotmatics software and % BRD9 remaining was calculated by normalisation to average data from high and low control wells (cells treated with DMSO or 100 nM CFT-8634 respectively).

BRD4 = molecular target: T2, BRD4 (Homo sapiens, UniProt O60885); experiment: Assay 1 - Degradation of HiBit-BRD4 in HEK293; format: cell-based; conditions: HiBit-BRD4 in HEK293, 6 h treatment
T2 construct: HEK293 containing a HiBit insertion for BRD4; endogenous in cells; host or cells: HEK293 with a HiBiT insertion for BRD4
Procedure: 1.1 Assay 1-Degradation of HiBit-BRD4 in HEK293
HEK293 containing a HiBit insertion for BRD4 were plated in 384-well tissue culture plates at a density of 8×10^4 per well in a volume of 36 μL and incubated overnight at 37° C. and 5% CO2. Wells were treated with test compounds for 6 h prior to addition of the NanoLuc substrate and reading on a […]. Degradation data was plotted and analysed using […] (Graphpad).

DC50 (BRD9) [nM] | DC50 (BRD4) [nM] | Dmax (BRD4) [%] | Compound | Dmax (BRD9) [%]
25 to 200 | – | – | COc1cc(-c2cn(C)c(=O)c(C)c2C)cc(OC)c1C(=O)N1CCN(C(=O)/C(C#N)=C/C(C)(C)C)CC1 [BRD9s, (E/Z)-2-(4-(2,6-dimethoxy-4-(1,4,5-trimethyl-6-oxo-1,6-dihydropyridin-3-yl)benzoyl)piperazine-1-carbonyl)-4,4-dimethylpent-2-enenitrile] | –
25 to 200 | – | – | COc1cc(-c2cn(C)c(=O)c(C)c2C)cc(OC)c1C(=O)N1CCCN(C(=O)/C(C#N)=C/C(C)(C)C)CC1 [BRD9v, (E/Z)-2-(4-(2,6-dimethoxy-4-(1,4,5-trimethyl-6-oxo-1,6-dihydropyridin-3-yl)benzoyl)-1,4-diazepane-1-carbonyl)-4,4-dimethylpent-2-enenitrile] | –
25 to 200 | – | – | COc1cc(-c2cn(C)c(=O)c(C)c2C)cc(OC)c1CN1C[C@@H](C)N(C(=O)/C(C#N)=C/C(C)(C)C)C[C@@H]1C [BRD9ad, (E)-2-((2R,5S)-4-(2,6-dimethoxy-4-(1,4,5-trimethyl-6-oxo-1,6-dihydropyridin-3-yl)benzyl)-2,5-dimethylpiperazine-1-carbonyl)-4,4-dimethylpent-2-enenitrile] | 50 to 70
> 200 | – | – | COc1cc(-c2cn(C)c(=O)c(C)c2C)cc(OC)c1CN1CC2CC1CN2C(=O)/C(C#N)=C/C(C)(C)C (mixture of isomers) [BRD9b, (E/Z)-2-(5-(2,6-dimethoxy-4-(1,4,5-trimethyl-6-oxo-1,6-dihydropyridin-3-yl)benzyl)-2,5-diazabicyclo[2.2.1]heptane-2-carbonyl)-4,4-dimethylpent-2-enenitrile] | –
25 to 200 | – | – | COc1cc(-c2cn(C)c(=O)c(C)c2C)cc(OC)c1C(=O)N1CC2CC1CN2C(=O)/C(C#N)=C/C(C)(C)C (mixture of isomers) [BRD9t, (E/Z)-2-(5-(2,6-dimethoxy-4-(1,4,5-trimethyl-6-oxo-1,6-dihydropyridin-3-yl)benzoyl)-2,5-diazabicyclo[2.2.1]heptane-2-carbonyl)-4,4-dimethylpent-2-enenitrile] | –
– | 25 to 200 | 50 to 70 | CC(=O)N1c2ccc(-c3ccc(C(=O)NCCOCCOCCOCCOCCOCCNC(=O)[C@@H]4CN(C(=O)/C(C#N)=C/c5ccn(C)n5)C[C@H]4C(C)C)cc3)cc2[C@H](Nc2ccc(Cl)cc2)C[C@@H]1C [Example 15h] | –
– | 25 to 200 | 50 to 70 | COc1ccc([C@@H]2CN(C(=O)/C(C#N)=C/c3ccn(C)n3)C[C@H]2C(=O)NCCOCCOCCOCCOCCOCCNC(=O)c2ccc(-c3ccc4c(c3)[C@H](Nc3ccc(Cl)cc3)C[C@H](C)N4C(C)=O)cc2)cc1 [Example 15ab] | –
– | > 200 | 50 to 70 | CC(=O)N1c2ccc(-c3ccc(C(=O)NCCOCCOCCOCCOCCOCCNC(=O)C4CC(c5ccccc5)CN(C(=O)/C(C#N)=C/c5ccn(C)n5)C4)cc3)cc2[C@H](Nc2ccc(Cl)cc2)C[C@@H]1C (some centres unmarked) [Example 13ab] | –
– | 25 to 200 | ≥ 70 | CC(=O)N1c2ccc(-c3ccc(C(=O)NCCOCCOCCOCCOCCOCCNC(=O)[C@@H]4CN(C(=O)/C(C#N)=C/C(C)(C)C)C[C@H]4CC(C)C)cc3)cc2[C@H](Nc2ccc(Cl)cc2)C[C@@H]1C [Example 15l] | –
– | 25 to 200 | ≥ 70 | CC(=O)N1c2ccc(-c3ccc(C(=O)NCCOCCOCCOCCOCCOCCNC(=O)[C@@H]4CN(C(=O)/C(C#N)=C/C(C)(C)CN5CCOCC5)C[C@H]4C4CCCCC4)cc3)cc2[C@H](Nc2ccc(Cl)cc2)C[C@@H]1C [Example 15t] | –
– | 25 to 200 | ≥ 70 | CC(=O)N1c2ccc(-c3ccc(C(=O)NCCOCCOCCOCCOCCOCCNC(=O)[C@@H]4CN(C(=O)/C(C#N)=C/c5nccs5)C[C@H]4CC(C)C)cc3)cc2[C@H](Nc2ccc(Cl)cc2)C[C@@H]1C [Example 15k] | –
– | > 200 | 50 to 70 | CC(=O)N1c2ccc(-c3ccc(C(=O)NCCOCCOCCOCCOCCOCCNC(=O)C4CC(C)CN(C(=O)/C(C#N)=C/C(C)(C)C)C4)cc3)cc2[C@H](Nc2ccc(Cl)cc2)C[C@@H]1C (some centres unmarked) [Example 13g] | –
– | 25 to 200 | ≥ 70 | CC(=O)N1c2ccc(-c3ccc(C(=O)NCCOCCOCCOCCOCCOCCNC(=O)[C@@H]4CN(C(=O)/C(C#N)=C/C(C)(C)C)C[C@H]4c4ccc(F)cc4)cc3)cc2[C@H](Nc2ccc(Cl)cc2)C[C@@H]1C [Example 15af] | –
– | > 200 | < 50 | COc1ccc([C@@H]2CN(C(=O)/C(C#N)=C/c3ccc(F)cc3)C[C@H]2C(=O)NCCOCCOCCOCCOCCOCCNC(=O)c2ccc(-c3ccc4c(c3)[C@H](Nc3ccc(Cl)cc3)C[C@H](C)N4C(C)=O)cc2)cc1 [Example 15ac] | –
– | 25 to 200 | 30 to 50 | CC(=O)N1c2ccc(-c3ccc(C(=O)NCCOCCOCCOCCOCCOCCNC(=O)[C@@H]4CN(C(=O)/C(C#N)=C/C(C)(C)CN5CCOCC5)C[C@H]4c4ccc(F)cc4)cc3)cc2[C@H](Nc2ccc(Cl)cc2)C[C@@H]1C [Example 15ai] | –
– | 25 to 200 | < 50 | CC(=O)N1c2ccc(-c3ccc(C(=O)NCCOCCOCCOCCOCCOCCNC(=O)C4CCCN(C(=O)/C(C#N)=C/c5ccn(C)n5)C4)cc3)cc2[C@H](Nc2ccc(Cl)cc2)C[C@@H]1C (some centres unmarked) [Example 13c] | –
– | > 200 | 30 to 50 | CC(=O)N1c2ccc(-c3ccc(C(=O)NCCOCCOCCOCCOCCOCCNC(=O)C4CCCN(C(=O)/C(C#N)=C/c5ccc(F)cc5)C4)cc3)cc2[C@H](Nc2ccc(Cl)cc2)C[C@@H]1C (some centres unmarked) [Example 13d] | –
– | 25 to 200 | ≥ 70 | CC(=O)N1c2ccc(-c3ccc(C(=O)NCCOCCOCCOCCOCCOCCNC(=O)C4CC(C5CC5)CN(C(=O)/C(C#N)=C/c5ccc(F)cc5)C4)cc3)cc2[C@H](Nc2ccc(Cl)cc2)C[C@@H]1C (some centres unmarked) [Example 13x] | –
– | > 200 | ≥ 70 | CC(=O)N1c2ccc(-c3ccc(C(=O)NCCOCCOCCOCCOCCOCCNC(=O)C4CC(c5ccccc5)CN(C(=O)/C(C#N)=C/C(C)(C)C)C4)cc3)cc2[C@H](Nc2ccc(Cl)cc2)C[C@@H]1C (some centres unmarked) [Example 13aa] | –
– | 25 to 200 | ≥ 70 | CC(=O)N1c2ccc(-c3ccc(C(=O)NCCOCCOCCOCCOCCOCCNC(=O)[C@@H]4CN(C(=O)/C(C#N)=C/C(C)(C)C)C[C@H]4C(C)C)cc3)cc2[C@H](Nc2ccc(Cl)cc2)C[C@@H]1C [Example 15g] | –
– | 25 to 200 | ≥ 70 | CC(=O)N1c2ccc(-c3ccc(C(=O)NCCOCCOCCOCCOCCOCCNC(=O)C4CC(c5cccc(C)c5)CN(C(=O)/C(C#N)=C/c5nccs5)C4)cc3)cc2[C@H](Nc2ccc(Cl)cc2)C[C@@H]1C (some centres unmarked) [Example 13at] | –
– | 25 to 200 | ≥ 70 | CC(=O)N1c2ccc(-c3ccc(C(=O)NCCOCCOCCOCCOCCOCCNC(=O)C4CC(C5CCCCC5)CN(C(=O)/C(C#N)=C/C(C)(C)CN5CCOCC5)C4)cc3)cc2[C@H](Nc2ccc(Cl)cc2)C[C@@H]1C (some centres unmarked) [Example 13t] | –
– | 25 to 200 | 50 to 70 | CC(=O)N1c2ccc(-c3ccc(C(=O)NCCOCCOCCOCCOCCOCCNC(=O)[C@@H]4CN(C(=O)/C(C#N)=C/c5nccs5)C[C@H]4c4ccccc4)cc3)cc2[C@H](Nc2ccc(Cl)cc2)C[C@@H]1C [Example 15u] | –

Compound | DC50 (BRD9) [nM] | DC50 (BRD4) [nM] | Dmax (BRD4) [%] | Dmax (BRD9) [%]
COc1cc(-c2cn(C)c(=O)c(C)c2C)cc(OC)c1CN1C2CC1CN(C(=O)/C(C#N)=C/C1(F)CC1)C2 [BRD9ag, (E)-2-(6-(2,6-dimethoxy-4-(1,4,5-trimethyl-6-oxo-1,6-dihydropyridin-3-yl)benzyl)-3,6-diazabicyclo[3.1.1]heptane-3-carbonyl)-3-(1-fluorocyclopropyl)acrylonitrile] | < 25 | – | – | ≥ 70
